Results: patent US20220315554A1, “COMPOUNDS COMPRISING A […] LIGAND AND USE THEREOF” (priority 2019, published 2022)
Numbered stars: 1 amine (or outer) side, 2 acyl side, 3 side chain; on linkers, the order of the positions; unused ones are H or OH. Bridge positions count the residues as written; N and C are the ends. Square brackets hold non-standard residues; d marks the D form. Peptide text beside a SMILES is read from it. * marks the point of attachment. X22 = O=C1CN2CCN3CCN(CC(=O)N4CCN(Cc5cc(C[*:1])cc(C[*:2])c5)CC4)CCN(CC2)CC(=O)[O][Lu]([O]1)[O]C(=O)C3; X11 = O=C(CN1CCN2CCN3CCN(CC1)CC(=O)[O][In]([O]C(=O)C2)[O]C(=O)C3)NCCSCc1cc(CSCCN[*:2])cc(C[*:1])c1; X13 = O=C(O)CN1CCN(CC(=O)O)CCN(CC(=O)NCCSCc2cc(CSCCN[*:2])cc(C[*:1])c2)CCN(CC(=O)O)CC1; X2 = O=C(O)CN1CCN(CC(=O)O)CCN(CC(=O)NCCCOCCOCCOCCCN*)CCN(CC(=O)O)CC1; X9 = NCCNCC(CNCCN)C(=O)N[C@@H](CCC(=O)O)C(=O)NCCCOCCOCCOCCCN*; X10 = O=C([C@H](CCCc1cccc(C[*:3])c1)N[*:1])[*:2]; mXylylene = c1cc(C[*:1])cc(C[*:2])c1; Suc = O=C(CCC(=O)[*:2])[*:1]; Nle = CCCC[C@H](N)C(=O)O; Hexanoyl = CCCCCC(=O)*; GABA = NCCCC(=O)O

How the values were obtained:
Human recombinant FAP [1] = target: T1, Human recombinant FAP (Homo sapiens, UniProt Q12884); experiment: FRET-based FAP protease activity assay; assay type: biochemical; design: purchased R&D systems 3715-SE; conditions: pIC50 Category (Activity), FRET substrate, 37° C.
T1 sequence (Q12884 1-760): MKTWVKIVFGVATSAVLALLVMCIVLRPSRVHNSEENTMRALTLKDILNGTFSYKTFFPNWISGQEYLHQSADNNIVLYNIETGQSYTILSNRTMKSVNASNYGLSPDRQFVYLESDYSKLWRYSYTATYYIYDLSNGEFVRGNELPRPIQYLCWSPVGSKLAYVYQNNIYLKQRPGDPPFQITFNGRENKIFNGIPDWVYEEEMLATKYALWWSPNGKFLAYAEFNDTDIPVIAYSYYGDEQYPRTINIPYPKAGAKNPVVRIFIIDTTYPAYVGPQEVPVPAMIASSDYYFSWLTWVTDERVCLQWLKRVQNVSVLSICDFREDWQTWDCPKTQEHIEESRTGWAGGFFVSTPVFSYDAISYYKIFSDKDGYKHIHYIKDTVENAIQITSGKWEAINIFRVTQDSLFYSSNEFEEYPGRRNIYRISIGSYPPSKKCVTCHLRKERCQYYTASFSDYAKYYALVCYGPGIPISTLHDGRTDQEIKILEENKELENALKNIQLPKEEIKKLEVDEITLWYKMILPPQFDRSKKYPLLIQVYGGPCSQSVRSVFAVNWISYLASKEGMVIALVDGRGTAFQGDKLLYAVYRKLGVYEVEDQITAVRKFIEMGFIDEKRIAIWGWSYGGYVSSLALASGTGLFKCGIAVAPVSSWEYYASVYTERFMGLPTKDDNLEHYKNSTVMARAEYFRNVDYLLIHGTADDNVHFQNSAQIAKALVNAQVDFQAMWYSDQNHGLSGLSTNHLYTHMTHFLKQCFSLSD

Human recombinant FAP [2] = target: T1, Human recombinant FAP; experiment: Surface plasmon resonance (Biacore) assay; assay type: binding
[3] = target: T2, FAP-expressing human WI-38 fibroblasts (Homo sapiens, UniProt Q12884); experiment: Competitive FACS binding assay; conditions: pIC50 Category (FACS), competition with 3 nM Cy5-labeled compound, 4° C., 1 hour
T2 construct: FAP-expressing human WI-38 fibroblasts (ECACC) were cultured in EMEM; host or cells: WI-38 human fibroblasts
T2 sequence (Q12884 1-760): T1 sequence (Q12884 1-760)
Procedure: Cells were analyzed in an Attune NxT flow cytometer. […]

Row | SMILES | IC50 (Human recombinant FAP [1]) [nM] | Kd (Human recombinant FAP [2]) [nM] | IC50 [3] [nM] | IC50 (Human recombinant FAP [1]; recombinant human FAP) [nM] | IC50 ([3]; WI-38 fibroblasts) [nM]
1 | CCCCCC(=O)N[C@H]1CSCc2cc(CSCCNC(=O)CN3CCN4CCN5CCN(CC3)CC(=O)[O][In]([O]C(=O)C4)[O]C(=O)C5)cc(c2)CSC[C@@H](C(N)=O)NC(=O)[C@H](Cc2ccccc2)NC(=O)[C@H](CCC(N)=O)NC(=O)[C@H]([C@@H](C)O)NC(=O)[C@@H]2CCCN2C(=O)[C@@H]2CCCN2C1=O [3BP-3712, Hex-[Cys(tMeBn(InDOTA-AET))-Pro-Pro-Thr-Gln-Phe-Cys]-NH2] | < 10 | < 10 | < 10 | – | –
2 | CCCC[C@H](NC(=O)CCC(=O)NCCCOCCOCCOCCCNC(=O)CN1CCN(CC(=O)O)CCN(CC(=O)O)CCN(CC(=O)O)CC1)C(=O)N[C@H]1CSCc2cccc(c2)CSC[C@@H](C(=O)N[C@@H](CC(=O)O)C(N)=O)NC(=O)[C@H](Cc2ccccc2)NC(=O)[C@H](CCC(N)=O)NC(=O)[C@H]([C@@H](C)O)NC(=O)[C@@H]2CCCN2C(=O)[C@@H]2CCCN2C1=O [3BP-3401, DOTA-Ttds-Nle-[Cys(3MeBn)-Pro-Pro-Thr-Gln-Phe-Cys]-Asp-NH2] ({X2-Suc}-[Nle]CPPTQFCD-NH2; linker 2-8 via mXylylene) | – | < 10 | – | < 10 | < 10
3 | CCCC[C@H](NC(=O)CCC(=O)NCCCOCCOCCOCCCNC(=O)[C@H](CCC(=O)O)NC(=O)C(CNCCN)CNCCN)C(=O)N[C@H]1CSCc2cccc(c2)CCC[C@@H](C(=O)O)NC(=O)[C@H](Cc2ccccc2)NC(=O)[C@H](CCC(=O)O)NC(=O)[C@H]([C@@H](C)O)NC(=O)[C@@H]2CCCN2C(=O)[C@@H]2CCCN2C1=O [3BP-4222, N4Ac-Glu-Ttds-Nle-[Cys-(3MeBn)-Pro-Pro-Thr-Glu-Phe-Cys]-OH] ({X9-Suc}-[Nle]CPPTEF[X10]-OH; thioether 2-8) | 10 to 79.4 | < 10 | 10 to 79.4 | – | –
4 | CCCCCC(=O)N[C@H]1CSCc2cc(CSCCNC(=O)CN3CCN4CCN5CCN(CC3)CC(=O)[O][In]([O]C(=O)C4)[O]C(=O)C5)cc(c2)CSCCNC(=O)[C@H](Cc2ccccc2)NC(=O)[C@H](CCC(N)=O)NC(=O)[C@H]([C@@H](C)O)NC(=O)[C@@H]2CCCN2C(=O)[C@@H]2CCCN2C1=O [3BP-3713, Hex-[Cys(tMeBn(InDOTA-AET))-Pro-Pro-Thr-Gln-Phe-AET]] (Hexanoyl-CPPTQF; linker 1-C via X11) | < 10 | < 10 | < 10 | – | –
5 | CCCCCC(=O)N[C@H]1CSCc2cc(CSCCNC(=O)CN3CCN(CC(=O)O)CCN(CC(=O)O)CCN(CC(=O)O)CC3)cc(c2)CSCCNC(=O)[C@H](Cc2ccccc2)NC(=O)[C@H](CCC(N)=O)NC(=O)[C@H]([C@@H](C)O)NC(=O)[C@@H]2CCCN2C(=O)[C@@H]2CCCN2C1=O [3BP-3654, Hex-[Cys(tMeBn(DOTA-AET))-Pro-Pro-Thr-Gln-Phe-AET]] (Hexanoyl-CPPTQF; linker 1-C via X13) | – | < 10 | – | < 10 | < 10
6 | CCCCCC(=O)N[C@H]1CSCc2cccc(c2)CSC[C@@H](C(=O)N[C@@H](CC(=O)O)C(=O)NCCCC(=O)N[C@@H](CCCNC(=N)N)C(N)=O)NC(=O)[C@H](Cc2ccccc2)NC(=O)[C@H](CCC(=O)O)NC(=O)[C@H]([C@@H](C)O)NC(=O)[C@@H]2CCCN2C(=O)[C@@H]2CCCN2C1=O [3BP-3300, Hex-[Cys(3MeBn)-Pro-Pro-Thr-Glu-Phe-Cys]-Asp-Gab-Arg-NH2] (Hexanoyl-CPPTEFCD[GABA]R-NH2; linker 1-7 via mXylylene) | – | < 10 | – | < 10 | < 10
7 | CCCCCC(=O)N[C@H]1CSCc2cc(cc(CN3CCN(C(=O)CN4CCN5CCN6CCN(CC4)CC(=O)[O][Lu]([O]C(=O)C6)[O]C(=O)C5)CC3)c2)CSC[C@@H](C(=O)N[C@@H](CC(=O)O)C(N)=O)NC(=O)[C@H](Cc2ccccc2)NC(=O)[C@H](CCC(N)=O)NC(=O)[C@H]([C@@H](C)O)NC(=O)[C@@H]2CCCN2C(=O)[C@@H]2CCCN2C1=O [3BP-3591, Lutetium-Complex of Hex-[Cys(tMeBn(DOTA-PP))-Pro-Pro-Thr-Gln-Phe-Cys]-Asp-NH2] (Hexanoyl-CPPTQFCD-NH2; linker 1-7 via X22) | – | < 10 | – | < 10 | < 10
